The target in assay [1] is Acyl-homoserine lactone acylase PvdQ (Pseudomonas aeruginosa (strain LESB58), UniProt Q9I194). Description: PvdQ acylase enzyme activity blockers – biochemical, fluorescence, plate reader and imaging, cherry-picks, dose response (AID 493231).
Assay [2] in a line: A Cell Based Secondary Assay To Explore Cytotoxicity of Compounds that Sensitize Mycobacterium Tuberculosis to Beta-Lactam Antibiotics. It is filed as functional.
Assay [3] in a line: viability of uninfected HEp-2 cells – cell-based, HTS, cytotoxicity control for RSV inhibitor project, dose response (AID 2410). The assay is classed as functional. The following applies: human respiratory syncytial virus.
Assay [4] is described as follows: cells.
For a further assay, the target named is Cytochrome P450 2D6 (Homo sapiens, UniProt P10635). Description: qHTS Assay for Inhibitors and Substrates of Cytochrome P450 2D6. [Related pubchem assays: 410 ]. The assay is classed as ADME. The note with it: read-out: Potency. For orientation: Quantitative high-throughput screening tests each substance at several concentrations.
For the next assay, the target named is Cytochrome P450 2C9 (Homo sapiens, UniProt P11712). The following applies: Potency.
The test system of a further assay is HeLa. Description: viability loss in HeLa cells – cell-based, 24 h, cherry-picked samples, cytotoxicity control, dose response (AID 504726).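 Further: potency for cytotoxicity as loss of luminescence signal.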 The note with it: Homo sapiens. The assay is classed as functional.
Assay [5] relates to BJ. Put plainly: BJ-TERT fibroblast viability loss – cell-based, RAS-independent, luminescence, dose response (AID 1933). The note with it: Homo sapiens. The assay is classed as functional.
A further assay concerns the target Oxytocin receptor (Homo sapiens, UniProt P30559). Put plainly: Fluorescence-based cell-based high throughput dose response assay for agonists of the Oxytocin Receptor (OXTR). [Related pubchem assays: 2435 (Primary screen (OXTR agonists in singlicate)), 434991 (Counterscreen (V1R agonists in triplicate)), 2482 (Summary (OXTR agonists)), 434963 (Confirmation screen (OXTR agonists in triplicate))]. The assay is classed as functional. In general terms: Counterscreens check selectivity or assay interference.

Assay [6] relates to BJ. Put plainly: cells. It is filed as functional, cell-based. The note with it: Homo sapiens.
A short description of assay [7]: DRD fibroblast viability loss – cell-based, non-viral oncogenic, luminescence, dose response (AID 1934). The assay is classed as functional. The following applies: Homo sapiens.
Another assay has as its target Vasopressin V1a receptor (Homo sapiens, UniProt P37288). Description: Counterscreen for Oxytocin Receptor (OXTR) agonists: Fluorescence-based cell-based high throughput dose response assay to identify agonists of the vasopressin 1 receptor (V1R). [Related pubchem assays: 2435 (Primary screen (OXTR agonists in singlicate)), 434991 (Counterscreen (V1R agonists in triplicate)), 2482 (Summary (OXTR agonists)) …. The assay is classed as functional.

A further assay relates to INS1. Put plainly: INS-1E survival protection against cytokine death – cell-based, luminescence, retest, dose response (AID 449756).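 Further: cell death triggered by IL-1 beta plus TNF-alpha plus IFN-gamma mixture; protective hits raise ATP signal compared with cytokine alone wells.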 The assay is classed as functional. The note with it: Rattus norvegicus.
The subject of assay [8] is BJ. Put plainly: BJ-TERT-LT-ST fibroblast viability loss – cell-based, RAS-independent, luminescence, dose response (AID 1935).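 Further: BJ fibroblasts immortalized with TERT plus LT and ST oncogenes.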 It is filed as functional. The note with it: Homo sapiens.
A short description of assay [9]: cells. This is another data set of the same source.
Another assay has as its system Streptococcus. Put plainly: GAS UMAA2166 growth inhibition – luminescence, BacTiterGlo, counter-screen for streptokinase expression inhibitor project, dose response (AID 1915).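 Further: potency for reduction of bacterial viability or growth.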 It is filed as functional, organism-based.
Assay [10] can be described thus: Vero E6 cell cytotoxicity, dose response, cytotoxicity control for non-replicating M. tuberculosis project, secondary assay (AID 492998). The following applies: Vero C1008. It is filed as functional, VeroE6.
The subject of assay [11] is Streptococcus sp. 'group A'. Description: Streptococcus pyogenes SK(-)GAS viability under kanamycin – luminescence, BacTiterGlo, confirmation, counter-screen for streptokinase expression inhibitor project, dose response (AID 1900). The assay is classed as functional, organism-based.
Assay [12] in a line: HepG2 cell cytotoxicity, dose response, cytotoxicity control for non-replicating M. tuberculosis project (AID 489018). The assay is classed as functional. The note with it: Mycobacterium tuberculosis.
Assay [13] can be described thus: Luminescence-based dose response cell-based high throughput screening assay for cytotoxic compounds using the IEC-6 intestinal epithelial cell line. [Related pubchem assays: 1858 (Summary AID.), 1825 (Counterscreen.), 1907 (Confirmation screen.)]. The assay is classed as functional.
A short description of assay [14]: NIH3T3 cell viability loss – ATP luminescence, mouse fibroblasts, counter-screen, dose response (AID 2010).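 Further: cells exposed to compound for about 90 hours before reading.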 The assay is classed as functional, cell-based.
A short description of assay [15]: cells. It is filed as functional.
Assay [16] is described as follows: Trypanosoma cruzi growth suppression in host cells – NIH3T3 host cells, beta-gal luminescence, confirmation (AID 2044).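 Further: intracellular parasites grown in NIH/3T3 mouse fibroblasts as host cells; luminescent beta-galactosidase reporter signal from transgenic T. cruzi replicating inside host cells; inhibitors lower the luminescence signal.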 The assay is classed as functional, cell-based.
Assay [17] is described as follows: THP-1 cell cytotoxicity, dose response, cytotoxicity control for non-replicating M. tuberculosis project (AID 489025). The assay is classed as functional.
The target in assay [18] is T1, Voltage-gated N-type calcium channel alpha-1B subunit/Amyloid beta A4 precursor protein-binding family A member 1 (Homo sapiens, UniProt Q00975+Q02410). It is filed as protein assay.
Assay [19] has as its target Eukaryotic translation initiation factor 4E (Mus musculus, UniProt P63073). Description: blockers of eIF4G binding by eIF4E – biochemical, TR-FRET, dose response (AID 855).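 Further: potency for disrupting eIF4E binding to eIF4GI seen as loss of FRET.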 The assay is classed as functional.
In assay [20] the target is DNA dC->dU-editing enzyme APOBEC-3G (Homo sapiens, UniProt Q9HC16). Description: Dose Response confirmation of small molecule APOBEC3G DNA Deaminase Inhibitors via a fluorescence-based single-stranded DNA deaminase assay. [Related pubchem assays (depositor defined):AID493012, AID493028]. It is filed as functional.
Assay [21] can be described thus: viability of PTEN-deleted HCT116 cells – cell-based, HCT116 PTEN knockout, dose response (AID 1047).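 Further: HCT116 colon tumor cells with PTEN knocked out; cells exposed to compound for 60 hours before readout; potency for loss of cell viability measured by luminescence.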 It is filed as functional.
Assay [22] deals with T1, Voltage-gated N-type calcium channel alpha-1B subunit/Amyloid beta A4 precursor protein-binding family A member 1. The assay is classed as protein assay. This is another data set of the same source.
In assay [23] the target is DNA dC->dU-editing enzyme APOBEC-3A (Homo sapiens, UniProt P31941). Put plainly: A3A deaminase inhibition for selectivity – biochemical, dose response (AID 504722). The assay is classed as functional.

Experimental findings from ChEMBL document CHEMBL1201862, “PubChem BioAssay data set” (2004) are described below.

As a reminder, the CC50 is the concentration at which the toxic effect on the cells reaches its halfway point. For orientation: IC50 means the concentration needed to halve the response being measured. A word on the EC50: it is the midpoint of the concentration-response curve.

Active and inactive are the calls of the source.

T1 sequence (Q00975 whole entry): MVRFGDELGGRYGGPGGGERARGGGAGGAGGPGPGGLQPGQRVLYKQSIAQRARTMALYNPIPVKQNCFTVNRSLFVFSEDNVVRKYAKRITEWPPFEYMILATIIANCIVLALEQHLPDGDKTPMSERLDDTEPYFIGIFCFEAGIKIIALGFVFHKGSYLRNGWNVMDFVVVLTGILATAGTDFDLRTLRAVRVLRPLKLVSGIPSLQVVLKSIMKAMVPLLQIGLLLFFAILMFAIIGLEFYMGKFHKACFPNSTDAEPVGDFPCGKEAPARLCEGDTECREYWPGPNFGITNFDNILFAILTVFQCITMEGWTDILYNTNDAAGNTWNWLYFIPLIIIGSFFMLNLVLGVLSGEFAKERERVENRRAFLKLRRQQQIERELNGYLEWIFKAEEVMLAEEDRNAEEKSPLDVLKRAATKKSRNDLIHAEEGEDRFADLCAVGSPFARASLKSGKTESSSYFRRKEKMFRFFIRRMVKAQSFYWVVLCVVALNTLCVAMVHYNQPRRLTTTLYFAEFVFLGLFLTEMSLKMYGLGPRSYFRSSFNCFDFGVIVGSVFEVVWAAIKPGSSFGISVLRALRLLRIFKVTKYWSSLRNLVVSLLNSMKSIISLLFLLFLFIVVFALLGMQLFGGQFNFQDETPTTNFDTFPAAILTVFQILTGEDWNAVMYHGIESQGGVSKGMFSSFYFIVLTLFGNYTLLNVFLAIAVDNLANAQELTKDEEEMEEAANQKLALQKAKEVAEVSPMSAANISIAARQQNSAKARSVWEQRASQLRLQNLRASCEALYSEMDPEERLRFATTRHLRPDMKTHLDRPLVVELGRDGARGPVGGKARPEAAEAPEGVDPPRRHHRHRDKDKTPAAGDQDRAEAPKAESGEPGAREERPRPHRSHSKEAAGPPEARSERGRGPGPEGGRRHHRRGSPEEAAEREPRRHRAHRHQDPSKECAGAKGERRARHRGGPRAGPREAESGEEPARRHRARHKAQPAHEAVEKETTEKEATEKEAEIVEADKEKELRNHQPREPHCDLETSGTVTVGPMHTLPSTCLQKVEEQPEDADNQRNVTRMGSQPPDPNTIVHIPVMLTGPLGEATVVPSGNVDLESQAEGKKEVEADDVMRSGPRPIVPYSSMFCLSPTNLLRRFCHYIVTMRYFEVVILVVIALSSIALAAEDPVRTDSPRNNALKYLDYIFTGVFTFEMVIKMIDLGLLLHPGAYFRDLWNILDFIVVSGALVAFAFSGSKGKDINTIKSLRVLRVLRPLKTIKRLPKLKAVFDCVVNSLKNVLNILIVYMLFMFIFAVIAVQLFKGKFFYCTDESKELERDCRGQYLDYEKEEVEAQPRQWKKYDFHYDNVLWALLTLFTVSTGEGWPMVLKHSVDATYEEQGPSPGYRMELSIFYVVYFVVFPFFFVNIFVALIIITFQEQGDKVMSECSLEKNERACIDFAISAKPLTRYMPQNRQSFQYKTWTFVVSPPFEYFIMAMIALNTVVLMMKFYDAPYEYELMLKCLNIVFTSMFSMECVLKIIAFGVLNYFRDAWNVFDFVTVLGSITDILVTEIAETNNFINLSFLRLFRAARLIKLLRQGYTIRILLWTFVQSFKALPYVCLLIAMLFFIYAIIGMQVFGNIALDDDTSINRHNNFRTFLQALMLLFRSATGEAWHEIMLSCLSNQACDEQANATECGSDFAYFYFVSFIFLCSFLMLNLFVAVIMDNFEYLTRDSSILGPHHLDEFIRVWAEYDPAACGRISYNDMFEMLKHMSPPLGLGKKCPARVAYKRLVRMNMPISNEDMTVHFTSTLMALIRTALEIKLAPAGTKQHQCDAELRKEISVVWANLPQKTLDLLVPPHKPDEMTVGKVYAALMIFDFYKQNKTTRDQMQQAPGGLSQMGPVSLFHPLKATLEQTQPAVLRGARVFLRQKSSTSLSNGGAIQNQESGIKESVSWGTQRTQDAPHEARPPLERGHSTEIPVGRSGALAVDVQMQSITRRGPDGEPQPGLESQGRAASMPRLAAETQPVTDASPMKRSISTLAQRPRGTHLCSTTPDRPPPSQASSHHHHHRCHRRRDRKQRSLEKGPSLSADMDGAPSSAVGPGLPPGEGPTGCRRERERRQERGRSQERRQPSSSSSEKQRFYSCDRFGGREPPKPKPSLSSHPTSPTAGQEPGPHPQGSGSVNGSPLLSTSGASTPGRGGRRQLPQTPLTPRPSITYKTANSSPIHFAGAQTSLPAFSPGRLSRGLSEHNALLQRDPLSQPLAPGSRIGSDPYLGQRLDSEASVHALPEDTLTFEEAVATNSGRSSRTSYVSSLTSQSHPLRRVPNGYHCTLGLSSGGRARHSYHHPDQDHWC
T1 sequence (Q02410 whole entry): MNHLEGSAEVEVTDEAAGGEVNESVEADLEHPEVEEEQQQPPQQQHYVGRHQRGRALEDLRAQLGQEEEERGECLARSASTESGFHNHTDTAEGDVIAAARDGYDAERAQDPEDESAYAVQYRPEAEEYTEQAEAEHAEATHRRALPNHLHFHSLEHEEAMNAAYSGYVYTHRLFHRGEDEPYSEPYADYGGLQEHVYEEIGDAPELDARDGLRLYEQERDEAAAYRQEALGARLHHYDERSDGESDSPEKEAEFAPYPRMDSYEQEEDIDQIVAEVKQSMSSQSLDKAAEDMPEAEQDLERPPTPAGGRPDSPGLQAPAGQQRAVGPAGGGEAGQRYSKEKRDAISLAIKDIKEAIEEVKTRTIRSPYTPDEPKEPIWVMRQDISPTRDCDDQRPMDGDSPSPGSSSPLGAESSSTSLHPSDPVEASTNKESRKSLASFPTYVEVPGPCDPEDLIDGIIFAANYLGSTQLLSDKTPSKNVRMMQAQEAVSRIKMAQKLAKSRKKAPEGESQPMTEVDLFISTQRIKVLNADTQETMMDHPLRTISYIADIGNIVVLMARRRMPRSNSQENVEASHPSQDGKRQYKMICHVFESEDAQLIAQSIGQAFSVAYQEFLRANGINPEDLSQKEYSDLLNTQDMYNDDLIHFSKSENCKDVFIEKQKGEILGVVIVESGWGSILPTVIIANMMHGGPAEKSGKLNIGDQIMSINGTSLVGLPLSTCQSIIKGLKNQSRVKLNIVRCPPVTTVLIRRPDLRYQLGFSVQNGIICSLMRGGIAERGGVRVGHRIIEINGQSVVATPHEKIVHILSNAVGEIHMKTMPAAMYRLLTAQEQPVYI
Sequence of Oxytocin receptor (P30559 whole entry): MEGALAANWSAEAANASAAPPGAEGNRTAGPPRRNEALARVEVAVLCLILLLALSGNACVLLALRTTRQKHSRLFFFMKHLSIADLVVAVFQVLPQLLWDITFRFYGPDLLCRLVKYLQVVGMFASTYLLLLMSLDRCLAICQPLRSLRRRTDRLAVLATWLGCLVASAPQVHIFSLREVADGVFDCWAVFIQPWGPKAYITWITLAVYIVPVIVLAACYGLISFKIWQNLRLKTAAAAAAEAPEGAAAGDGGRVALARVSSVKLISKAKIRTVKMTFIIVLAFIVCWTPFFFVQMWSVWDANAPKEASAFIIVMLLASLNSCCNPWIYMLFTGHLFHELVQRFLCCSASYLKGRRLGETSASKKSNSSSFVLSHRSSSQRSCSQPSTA
Sequence of Cytochrome P450 2C9 (P11712 whole entry): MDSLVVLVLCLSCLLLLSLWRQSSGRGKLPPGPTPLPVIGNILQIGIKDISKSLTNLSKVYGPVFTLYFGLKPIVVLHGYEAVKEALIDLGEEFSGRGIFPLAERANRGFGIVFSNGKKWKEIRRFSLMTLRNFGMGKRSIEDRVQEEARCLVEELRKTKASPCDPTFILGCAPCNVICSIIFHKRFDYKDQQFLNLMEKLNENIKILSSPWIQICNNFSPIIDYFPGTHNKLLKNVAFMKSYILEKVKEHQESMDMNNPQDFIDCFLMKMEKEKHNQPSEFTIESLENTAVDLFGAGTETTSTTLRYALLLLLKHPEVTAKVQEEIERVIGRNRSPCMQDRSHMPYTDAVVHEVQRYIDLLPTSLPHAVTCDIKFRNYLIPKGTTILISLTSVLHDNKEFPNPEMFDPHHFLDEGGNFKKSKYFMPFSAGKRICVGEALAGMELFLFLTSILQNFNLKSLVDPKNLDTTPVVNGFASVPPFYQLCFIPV
Sequence of Vasopressin V1a receptor (P37288 whole entry): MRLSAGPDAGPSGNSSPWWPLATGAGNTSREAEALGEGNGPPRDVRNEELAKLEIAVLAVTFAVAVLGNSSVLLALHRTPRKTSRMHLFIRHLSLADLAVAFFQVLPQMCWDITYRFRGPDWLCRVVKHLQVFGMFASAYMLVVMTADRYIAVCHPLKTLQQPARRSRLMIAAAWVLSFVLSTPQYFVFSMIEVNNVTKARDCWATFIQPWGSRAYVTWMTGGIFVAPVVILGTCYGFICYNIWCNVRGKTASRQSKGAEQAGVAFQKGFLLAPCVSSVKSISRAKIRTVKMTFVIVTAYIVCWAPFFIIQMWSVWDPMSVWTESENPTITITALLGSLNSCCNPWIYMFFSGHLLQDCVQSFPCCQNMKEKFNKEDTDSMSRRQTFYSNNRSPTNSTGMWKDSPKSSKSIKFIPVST
Sequence of Cytochrome P450 2D6 (P10635 whole entry): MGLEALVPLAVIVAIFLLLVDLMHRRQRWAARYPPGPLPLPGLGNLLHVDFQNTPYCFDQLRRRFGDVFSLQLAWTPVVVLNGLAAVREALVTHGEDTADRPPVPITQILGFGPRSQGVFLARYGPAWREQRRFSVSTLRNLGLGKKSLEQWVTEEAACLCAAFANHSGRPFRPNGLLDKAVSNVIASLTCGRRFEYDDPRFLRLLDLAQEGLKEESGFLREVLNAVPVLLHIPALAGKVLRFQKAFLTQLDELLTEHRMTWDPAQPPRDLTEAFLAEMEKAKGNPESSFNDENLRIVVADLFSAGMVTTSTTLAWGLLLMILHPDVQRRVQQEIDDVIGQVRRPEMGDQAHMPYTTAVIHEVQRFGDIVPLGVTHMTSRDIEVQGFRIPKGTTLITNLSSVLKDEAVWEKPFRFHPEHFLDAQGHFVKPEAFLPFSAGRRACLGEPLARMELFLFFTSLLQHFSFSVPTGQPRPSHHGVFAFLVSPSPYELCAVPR

As for `Cc1ccc(C)c(S(=O)(=O)NC2CCSC2=O)c1` (centres undefined), the AC50 in [1] was 3.22 µM (active).
Turning to `COc1ccc(Cn2c(=O)[nH]c3cc(C(=O)N4CCN(c5ccccc5F)CC4)ccc3c2=O)cc1`, in assay [2], the CC50 is > 40 µM (active).
`O=C(Cc1cccc2ccccc12)Nc1ccccc1C(=O)O`: the CC50 in assay [3] was 28.8 µM (active). Also, the IC50 in “cells [4]” is 24.4 µM (active).
`CC(=O)[C@@H]1[C@H]2[C@@H](C(=O)[C@H]3OC[C@H]2O3)[C@@H]2C=Cc3ccccc3N12`: the AC50 is 39.8 µM (inconclusive) on Cytochrome P450 2D6 and 31.6 µM (inconclusive) on Cytochrome P450 2C9.
In the case of `COc1ccc(-c2cc(=O)c3ccc(O)cc3o2)cc1`, the AC50 on Cytochrome P450 2C9 was 3.98 µM (inconclusive).
For the molecule `C/C(=N\Nc1nc2c(s1)CCCC2)c1ccc(Cl)cc1`, in the assay on HeLa, the AC50 is 83.5 µM (active).
Regarding `COc1cccc(/C=N/Nc2snc(SC)c2C#N)c1O`, the EC50 was 27 µM (active) in the assay with BJ [5]; > 29.9 µM (not active) on Oxytocin receptor; 40.4 µM (active) in the assay with BJ [6]; 48.3 µM (active) in [7]; > 29.9 µM (not active) on Vasopressin V1a receptor; > 150 µM (not active) in the assay with BJ [8]. Also, in the assay on INS1, the AC50 is 3.96 µM (active).
As to `C/C(=N\NC(=O)c1ccc(Cl)cc1)c1ccccn1`, the EC50 in the assay “cells [9]” was 64 nM (active); in the assay with Streptococcus it was 7.47 µM (active); in assay [11], 2.33 µM (active); in assay [14], 1.04 µM (active); in assay [16], < 100 nM (active). Also, the figures for the CC50 in [10], in [12] and in assay [17] were 1.52 µM (active), 6.87 µM (active) and 551 nM (active), respectively. Besides, the IC50 was 546 nM (active) in assay [13] and 800 nM (active) in the assay “cells [15]”. Moreover, in the assay with INS1, the AC50 was 0.34 µM (active).
For `Cc1cc(Cl)ccc1/N=c1\ssnc1Cl`, the values for the EC50 (at Oxytocin receptor; at Vasopressin V1a receptor; in assay [21]) were > 29.9 µM (not active), > 29.9 µM (not active) and 49 µM (active), respectively. Also, the IC50 in assay [18] is 2.3 µM (active); in assay [19], > 64 µM (inactive); in assay [20], 11.9 µM (active); in assay [22], 15.4 µM (active); in assay [23], > 100 µM (inactive).
